Source: patent US11953435B2, “Zinc-responsive fluorophores” (Northwestern University, priority 2019, dated 2024)

Experiment: Zinc dissociation constant, fluorescence titration in buffered EGTA-zinc solution
Type: binding
Settings: for Kd: 200 nM probe, 50 mM HEPES, 0.1 M KNO3, pH 7.2, 10 mM EGTA; for affinity for zinc (in words): compared to other probes
Procedure: Aqueous solutions were prepared by using de-ionized water with resistivity […], obtained using a Milli-Q water purification system. In order to properly compare the photophysical properties of ZincBY-2, ZincBY-3, and ZincBY-4 to ZincBY-1, the photophysical properties of ZincBY-1 we remeasured. […] Stock solutions of ZincBY-1, ZincBY-2, ZincBY-3, and ZincBY-4 were prepared at concentrations of 5 mM and stored at −20° C. in aliquots that were used immediately after thawing for each experiment. Unless otherwise stated, all spectroscopic methods were conducted in aqueous buffer containing 50 mM HEPES (pH 7.2) and 0.1 M KNO3. UV-visible spectra were acquired on a PerkinElmer Lambda 650 UV/Vis spectrophotometer using quartz cuvettes from Starna (1 cm path length, 10 cm path length used in extinction coefficient and quantum yield determination). Fluorescence spectra were acquired using a PerkinElmer LS 55 fluorescence spectrophotometer. For measurements containing zinc, 99.0% ZnNO3 hexahydrate (final concentration 5 μM) was used. For experiments analyzing apo probes, N,N,N′,N′-Tetrakis(2-pyridylmethyl)ethylenediamine (TPEN) (final concentration 5 μM) was added to solution. Quantum Yield and Extinction Coefficient Determination. Quantum yields for apo and holo ZincBY-1, ZincBY-2, ZincBY-3, and ZincBY-4 were determined by plotting absorbance vs. fluorescence intensity of solutions containing ZincBY-1, ZincBY-2, ZincBY-3, or ZincBY-4 at probe concentrations ranging from 50-250 nM. Serial dilution was used to make solutions at different concentrations. Fluorescein dissolved in 0.1 N NaOH was used as the quantum yield standard, using a literature-determined quantum yield of 0.95.^3 For all fluorophore solutions, fluorescence excitation was set at 490 nm and fluorescence emission was integrated from 510 nm to 650 nm. Zinc Dissociation Constant. Fluorescence spectra were recorded using zinc probes (ZincBY-1, ZincBY-2, ZincBY-3, or ZincBY-4; 200 nM) and ZnSO4 (various concentrations). The solutions were equilibrated in the dark for 1 h prior to measurement. The concentration of ZnSO4 was varied from 1 μM to 9 mM in buffer solution (50 mM HEPES and 0.1 M KNO3, and pH 7.2) containing 10 mM EGTA. Free Zn^2+ was calculated according to a previously reported method (Ref. B4; incorporated by reference in its entirety). Data was fit to the following one-site binding equation: F=(FminKd+Fmax[Zn^2+])/(Kd+[Zn^2+]) pH Response. The fluorescence spectra of zinc probes (ZincBY-2, ZincBY-3, or ZincBY-4; 200 nM) wasere measured at various pH values (4.5-11). The following buffers were used at 50 mM concentration with 0.1 M KNO3: NaOAc/AcOH (pH 4.0-4.5), MES (pH 5.0-6.5), HEPES (pH 7.0-8.0), CHES (pH 8.5-9.5), CAPS (pH 10.0-11.0). Metal Ion Response. The fluorescence spectra of zinc probes (ZincBY-2, ZincBY-3, or ZincBY-4; 200 nM) were measured in the presence an excess of metal ion including 1 mM KNO3, 1 mM NaNO3, 1 mM CaSO4, 1 mM MgSO4, 15 μM MnSO4, 15 μM (NH4)2Fe(SO4)2, 15 μM NH4Fe(SO4)2, 15 μM CoSO4, 15 μM NiSO4, 15 μM CuSO4, 15 μM [Cu(CH3CN)4]PF6, 15 μM CdSO4, 15 μM Hg(NO3)2, 15 μM Pb(NO3)2, or 15 μM ZnSO4. The fluorescence spectra were compared to that of ZincBY-2 (200 nM), ZincBY-3 (200 nM), or ZincBY-4 (200 nM) in the presence of 10 μM TPEN. Determination of octanol-water partition coefficients (log P). A log P value for each probe was determined by agitating nanomolar solutions of each probe in a 1:1 mixture of HEPES buffer and 1-octanol. Solutions were allowed to settle for 1 h and then the fluorescence intensity of each phase was measured. Standard curves of the fluorescence of known concentrations of probes in both solutions were used to determine concentrations.

SMILES | Kd | affinity for zinc weaker than that of ZincBY-1 (relative to ZincBY-1) | affinity for zinc (in words) | affinity for zinc higher than that of ZincBY-1 (relative to ZincBY-1)
COc1ccc2n1[B-](F)(F)[N+]1=C(N(CCN(Cc3ccccn3)Cc3ccccn3)Cc3ccccn3)C=CC1=C2c1c(C)cc(C)cc1C [ZincBY-1, reference compound] | 3.72 ± 0.87 nM | – | – | –
Cc1cc(C)c(C2=C3C=CC(OCCN=[N+]=[N-])=[N+]3[B-](F)(F)n3c2ccc3N(CCN(Cc2ccccn2)Cc2ccccn2)Cc2ccccn2)c(C)c1 [ZincBY-2, N1-(7-(2-azidoethoxy)-5,5-difluoro-10-mesityl-5H-4λ4,5λ4-dipyrrolo[1,2-c:2′,1′-f][1,3,2]diazaborinin-3-yl)-N1,N2,N2-tris(pyridin-2-ylmethyl)ethane-1,2-diamine] | 18.1 ± 2.6 nM | five-fold weaker | – | –
Cc1cc(C)c(C2=C3C=CC(OCCN)=[N+]3[B-](F)(F)n3c2ccc3N(CCN(Cc2ccccn2)Cc2ccccn2)Cc2ccccn2)c(C)c1 [ZincBY-3, N1-(7-(2-aminoethoxy)-5,5-difluoro-10-mesityl-5H-4λ4,5λ4-dipyrrolo[1,2-c:2′,1′-f][1,3,2]diazaborinin-3-yl)-N1,N2,N2-tris(pyridin-2-ylmethyl)ethane-1,2-diamine] | 0.0977 ± 0.0261 nM | – | sub-nanomolar | 38 fold
CC(=O)NCCOc1ccc2n1[B-](F)(F)[N+]1=C(N(CCN(Cc3ccccn3)Cc3ccccn3)Cc3ccccn3)C=CC1=C2c1c(C)cc(C)cc1C [ZincBY-4, N-(2-((7-((2-(bis(pyridin-2-ylmethyl)amino)ethyl)(pyridin-2-ylmethyl)amino)-5,5-difluoro-10-mesityl-5H-5λ4,6λ4-dipyrrolo[1,2-c:2′,1′-f][1,3,2]diazaborinin-3-yl)oxy)ethyl)acetamide] | 0.229 ± 0.0184 nM | – | sub-nanomolar | –
